The record followed here is publication PMC8396344, “Palmitoylation of Prolactin-Releasing Peptide Increased Affinity for and Activation of the GPR10, NPFF-R2 and NPFF-R1 Receptors: In Vitro Study” (International Journal of Molecular Sciences, 2021).

For assay [1], the target named is T1, GPR10 (Homo sapiens, UniProt P49683).
T1 construct: host or cells: CHO-K1
T1 sequence (P49683 1-370): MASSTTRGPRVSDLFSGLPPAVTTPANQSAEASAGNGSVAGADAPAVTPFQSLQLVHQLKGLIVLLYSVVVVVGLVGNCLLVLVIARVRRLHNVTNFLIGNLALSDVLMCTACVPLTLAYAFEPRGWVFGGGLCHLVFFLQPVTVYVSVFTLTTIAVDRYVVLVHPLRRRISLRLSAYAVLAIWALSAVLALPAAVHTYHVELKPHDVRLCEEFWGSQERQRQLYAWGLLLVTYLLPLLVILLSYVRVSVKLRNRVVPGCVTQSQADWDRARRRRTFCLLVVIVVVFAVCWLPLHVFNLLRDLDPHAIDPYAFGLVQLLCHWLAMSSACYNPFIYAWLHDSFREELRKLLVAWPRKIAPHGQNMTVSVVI
As to the kind of experiment: Intracellular Ca^2+ mobilization, Fura-2, CHO-K1 cells expressing GPR10. The assay is classed as cell-based. The settings on record: Fura 2 dye; peptides 10^−12 to 10^−5 M; repeated two times in duplicates. The procedure: Measuring the intracellular Ca^2+ level in CHO-K1 cells containing GRP10 was performed using the calcium-sensitive dye Fura-2 according to the manufacturer’s protocol (Molecular Devices, Sunnyvale, CA, USA). The day before the experiment, cells were seeded at 40,000 cells/well in 96-well plates in growth media and kept at 37 °C in an incubator with 5% CO2 overnight. Peptides were tested at concentrations from 10^−12 to 10^−5 M. Fura-2 fluorescent dye was detected using a FlexStation 3 fluorometric plate reader (Molecular Devices), and excitation was measured at 340 nm and 380 nm and emission at 510 nm.
Ca^2+ release assay data are shown as the percentage of maximal response, and the results were analyzed by nonlinear regression as log agonist versus response using GraphPad software. Data are representative of at least three experiments, each performed in duplicate.

For assay [2], the target named is T1, GPR10. Nature of the assay: Competitive binding, [^125I]-PrRP31, CHO-K1 cells expressing GPR10.

No end group written: not given here.

One may read the Ki as the equilibrium dissociation constant of an inhibitor or competing ligand from its target.

Take `CCCCCCCCCCCCCCCC(=O)N[C@@H](CO)C(=O)N[C@@H](CCCNC(=N)N)C(=O)N[C@H](C(=O)N[C@@H](Cc1c[nH]cn1)C(=O)N[C@@H](CCCNC(=N)N)C(=O)N[C@@H](Cc1c[nH]cn1)C(=O)N[C@@H](CO)C(=O)N[C@@H](CCSC)C(=O)N[C@@H](CCC(=O)O)C(=O)N[C@H](C(=O)N[C@@H](CCCNC(=N)N)C(=O)N[C@H](C(=O)N1CCC[C@H]1C(=O)N[C@@H](CC(=O)O)C(=O)N[C@H](C(=O)N[C@@H](CC(N)=O)C(=O)N1CCC[C@H]1C(=O)N[C@@H](C)C(=O)N[C@@H](Cc1c[nH]c2ccccc12)C(=O)N[C@@H](Cc1ccc(O)cc1)C(=O)N[C@@H](C)C(=O)N[C@@H](CO)C(=O)N[C@@H](CCCNC(=N)N)C(=O)NCC(=O)N[C@H](C(=O)N[C@@H](CCCNC(=N)N)C(=O)N1CCC[C@H]1C(=O)N[C@H](C(=O)NCC(=O)N[C@@H](CCCNC(=N)N)C(=O)N[C@@H](Cc1ccccc1)C(N)=O)C(C)C)[C@@H](C)CC)[C@@H](C)CC)[C@@H](C)O)[C@@H](C)CC)[C@@H](C)O` [Palm-PrRP31]: the “Ca^2+ mobilization in CHO-K1 cells expressing GPR10” value on GPR10 [1] is given as “stimulated Ca^2+ mobilization”.
In the case of “SRAHQHSMETRTPDINPAWYTGRGIRPVGRF-NH2 [PrRP31, prolactin-releasing peptide 31, reference compound]”, the Ki on GPR10 [2] stood at 4.58 ± 0.66 nM.
